Here are results for four compounds from patent publication US5773459A, “Urea- and thiourea-type compounds” (Sugen, Inc., priority 1995, dated 1998).

This assay has as its target T1, PDGFR-beta (Homo sapiens, UniProt P09619).
T1 construct: the human glioblastoma line U1242 that expresses PDGFR-beta; endogenous in cells; host or cells: U1242 (U1242 MG) human glioblastoma
Kind of assay: PDGF-R Cellular Assay (cellular kinase ELISA). The format is cell-based. The protocol:
Growth assays were carried out using human mammary epithelial SKBR3 (ATCC HTB30) cells (SKBR3 cells over-express HER2), SKOV3 (ATCC HTB77) human ovarian cancer cell line (SKOV3 cells also over-express HER2), A431 cells (A431 cells over-express EGFR) MCF7 human breast carcinoma cells, MCF7 cells overexpressing the HER2 kinase (MCF7-HER2), NIH3T3 cells, and NIH3T3 cells overexpressing the HER2 kinase (3T3-HER2.
The PDGF cellular kinase assay was carried out as follows: cells are lysed in 0.2M Hepes, 0.15M NaCl, 10% V/V glycerol, 0.04% Triton X-100, 5 mM EDTA, 5 mM Na+ vanadate and 2 mM Na+ pyrophosphate; cell lysates are then added to an ELISA plate coated with an anti-PDGF receptor antibody (Genzyme); ELISA plates are coated at 0.5 μg of antibody/well in 150 μl of PBS for 18 hours at 4° C. prior to the addition of the lysate; the lysate is incubated in the coated plates for 1 hour and then washed four times in TBST (35 mM Tris-HCl pH 7.0, 0.15M NaCl, 0.1% Triton X100); anti-phosphotyrosine antibody (100 μl in PBS) is added and the mixture is incubated for 30 minutes at room temperature; the wells were then washed four times in TBST, a secondary antibody conjugated to POD (TAGO) is added to each well, and the treated well are incubated for 30 minutes at room temperature; the wells are then washed four times in TBST, ABTS/H2 O2 solution is added to each well and the wells are incubated for two minutes; absorbance is then measured at 410 nm.
U1242 MG cells were plated in 96-well plates at a concentration of 5×10^4 cells/well in cultured media containing 0.5% FBS. The cells were incubated for 24 hours. The cells were then treated with a particular compound for 2 hours followed by the addition of 100 ng/ml PDGF-BB and incubation for 10 minutes.
Cells were lysed in 0.2M Hepes, 0.15M NaCl, 10% V/V glycerol, 0.04% Triton X-100, 5 mM EDTA, 5 mM Na+ vanadate and 2 mM Na+ pyrophosphate. Cell lysates were then added to an ELISA plate coated with an anti-PDGF receptor antibody (Genzyme). ELISA plates were coated at 0.5 μg of antibody/well in 150 μl of PBS for 18 hours at 4° C. prior to the addition of the lysate.
The lysate was incubated in the coated plates for 1 hour and then washed four times in TBST (35 mM Tris-HCl pH 7.0, 0.15M NaCl, 0.1% Triton X-100). Anti-phosphotyrosine antibody (100 μl in PBS) was added and the mixture was incubated for 30 minutes at room temperature. The wells were then washed four times in TBST, a secondary antibody conjugated to POD (TAGO) was added to each well, and the treated well were incubated for 30 minutes at room temperature. The wells were then washed four times in TBST, ABTS/H2 O2 solution was added to each well and the wells were incubated for two minutes. Absorbance was then measured at 410 nm.
A general note: ELISA stands for enzyme-linked immunosorbent assay.

Setting [1] is: U1242 MG cells, PDGF-BB stimulated, read-out: ELISA DATA: PDGFR.

Read-outs that look alike come from different tables or passages of the source. Some results are limits rather than exact numbers.

T1 sequence (P09619 33-1106): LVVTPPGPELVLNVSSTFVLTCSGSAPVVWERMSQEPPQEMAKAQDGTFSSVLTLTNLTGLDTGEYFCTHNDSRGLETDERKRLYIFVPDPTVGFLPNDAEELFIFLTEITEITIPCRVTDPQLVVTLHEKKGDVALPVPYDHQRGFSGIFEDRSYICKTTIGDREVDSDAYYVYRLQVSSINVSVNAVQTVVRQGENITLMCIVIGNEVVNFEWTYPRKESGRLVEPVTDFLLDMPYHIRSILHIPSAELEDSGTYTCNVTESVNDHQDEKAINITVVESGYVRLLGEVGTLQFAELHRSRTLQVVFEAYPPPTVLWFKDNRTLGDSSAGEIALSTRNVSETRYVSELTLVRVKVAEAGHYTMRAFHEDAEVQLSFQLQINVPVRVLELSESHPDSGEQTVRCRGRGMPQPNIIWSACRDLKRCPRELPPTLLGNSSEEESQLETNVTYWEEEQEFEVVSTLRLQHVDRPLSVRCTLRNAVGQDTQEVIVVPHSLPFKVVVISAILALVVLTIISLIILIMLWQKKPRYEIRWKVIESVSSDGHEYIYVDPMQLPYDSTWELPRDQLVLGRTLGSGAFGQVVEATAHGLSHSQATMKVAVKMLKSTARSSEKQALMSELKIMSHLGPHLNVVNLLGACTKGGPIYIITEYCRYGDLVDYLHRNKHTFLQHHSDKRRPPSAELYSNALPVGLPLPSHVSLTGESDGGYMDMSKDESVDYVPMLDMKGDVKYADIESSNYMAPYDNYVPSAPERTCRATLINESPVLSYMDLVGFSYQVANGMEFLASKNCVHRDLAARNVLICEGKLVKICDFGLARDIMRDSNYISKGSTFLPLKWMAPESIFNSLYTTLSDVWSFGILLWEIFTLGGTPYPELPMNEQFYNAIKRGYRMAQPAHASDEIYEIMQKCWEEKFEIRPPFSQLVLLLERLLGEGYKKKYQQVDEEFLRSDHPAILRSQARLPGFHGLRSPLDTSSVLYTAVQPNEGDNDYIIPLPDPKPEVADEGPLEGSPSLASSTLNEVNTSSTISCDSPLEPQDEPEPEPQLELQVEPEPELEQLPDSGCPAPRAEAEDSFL

As to `CC(C)S(=O)(=O)c1csc(NC(=O)Nc2ccc(C(C)(C)C)cc2)c1Cl` [Example Z1, N-[3-Chloro-4-(isopropylsulfonyl)thien-2-yl]-N'-(4-t-butylphenyl)urea], the IC50 under setting [1] is > 50 µM. Same read-out and setting: the result for `CC(C)S(=O)(=O)c1csc(NC(=O)Nc2cc(C(F)(F)F)cc(C(F)(F)F)c2)c1Cl` [Example Z2, N-[3-Chloro-4-(isopropylsulfonyl)thien-2-yl]-N'-(3,5-di-trifluoromethylphenyl)urea] reads > 50 µM. In the case of `O=C(Nc1ccc(SC(F)(F)F)cc1)Nc1ccc(Oc2ccc(Cl)cc2Cl)nc1` [Example Z3], the IC50 is > 100 µM. On to `N#Cc1ccc(NC(=S)Nc2ccc(S(=O)(=O)N3CCCCC3)cc2)cc1` [Example Z4, N-(4-Cyanophenyl)-N'-[4-[(piperid-1-yl)sulfonyl]phenyl]thiourea], for which the IC50 under setting [1] is > 100 µM.
